# Tested on: LNCaP/AR(cs) cells
# Test: Endogenous gene transcriptional assay (real-time PCR of androgen responsive genes)
# Format: cell-based, human
# [1] = Table 4A, 1 nM R1881 or 30 μM compound, vehicle=1.00
# Protocol: Total RNA was isolated using the Aurum™ total RNA isolation kit (BIO-RAD, Hercules, Calif.). RNA (1 μg) was reverse transcribed using the iScript cDNA synthesis kit (BIO-RAD, Hercules, Calif.) to produce cDNA. Real-time PCR was performed using the Applied Biosystems 7900HT instrument and SYBR Green PCR Master Mix (Applied Biosystems, Foster City, Calif.). PCR reactions were performed in 6 μL according to the manufacturer's protocol and a thermocycle protocol of 95° C. for 10 minutes followed by 40 cycles of 95° C. for 15 seconds and 58° C. for 1 minute. Androgen responsive gene (PSA, SLUG, TMPRSS2, STEAP4, FKBP5, ORM1, NOV, FASN, NKX3.1, AMIGO2, BDNF, CAMK2N1, HPGD, NCAPD3, PLD1) expression was normalized to GAPDH expression and expressed relative to vehicle treatment of the parental cell line.
# Gene expression was normalized to GAPDH as described above.
structure (smiles),measurement,setting,value
"CNC(=O)c1ccc(N2C(=S)N(c3ccc(C#N)c(C(F)(F)F)c3)C(=O)C2(C)C)cc1F [Enzalutamide, enzalutamide]","AMIGO2 expression, antagonist transcription","+1 nM R1881, 0.3 μM",0.49
same,"BDNF expression, antagonist transcription","+1 nM R1881, 0.3 μM",0.61
same,"CAM2KN1 expression, antagonist transcription","+1 nM R1881, 0.3 μM",0.04
same,"FASN expression, antagonist transcription","+1 nM R1881, 0.3 μM",1.30
same,"FKBP5 expression, antagonist transcription","+1 nM R1881, 0.3 μM",23.51
same,"HPGD expression, antagonist transcription","+1 nM R1881, 0.3 μM",99.16
same,"NCAPD3 expression, antagonist transcription","+1 nM R1881, 0.3 μM",23.74
same,"NKX3.1 expression, antagonist transcription","+1 nM R1881, 0.3 μM",7.70
same,"NOV expression, antagonist transcription","+1 nM R1881, 0.3 μM",0.11
same,"PLD1 expression, antagonist transcription","+1 nM R1881, 0.3 μM",0.02
same,"PSA expression, antagonist transcription","+1 nM R1881, 0.3 μM",22.76
same,"SLUG expression, antagonist transcription","+1 nM R1881, 0.3 μM",50.08
same,"STEAP4 expression, antagonist transcription","+1 nM R1881, 0.3 μM",585.81
same,"TMPRSS2 expression, antagonist transcription","+1 nM R1881, 0.3 μM",19.88
same,"AMIGO2 expression, antagonist transcription","+1 nM R1881, 1 μM",0.19
same,"BDNF expression, antagonist transcription","+1 nM R1881, 1 μM",0.28
same,"CAM2KN1 expression, antagonist transcription","+1 nM R1881, 1 μM",0.06
same,"FASN expression, antagonist transcription","+1 nM R1881, 1 μM",0.42
same,"FKBP5 expression, antagonist transcription","+1 nM R1881, 1 μM",5.64
same,"HPGD expression, antagonist transcription","+1 nM R1881, 1 μM",16.30
same,"NCAPD3 expression, antagonist transcription","+1 nM R1881, 1 μM",4.35
same,"NKX3.1 expression, antagonist transcription","+1 nM R1881, 1 μM",3.77
same,"NOV expression, antagonist transcription","+1 nM R1881, 1 μM",0.14
same,"PLD1 expression, antagonist transcription","+1 nM R1881, 1 μM",0.02
same,"PSA expression, antagonist transcription","+1 nM R1881, 1 μM",8.82
same,"SLUG expression, antagonist transcription","+1 nM R1881, 1 μM",10.20
same,"STEAP4 expression, antagonist transcription","+1 nM R1881, 1 μM",109.37
same,"TMPRSS2 expression, antagonist transcription","+1 nM R1881, 1 μM",7.72
same,"AMIGO2 expression, antagonist transcription","+1 nM R1881, 3 μM",0.48
same,"BDNF expression, antagonist transcription","+1 nM R1881, 3 μM",0.63
same,"CAM2KN1 expression, antagonist transcription","+1 nM R1881, 3 μM",0.27
same,"FASN expression, antagonist transcription","+1 nM R1881, 3 μM",0.71
same,"FKBP5 expression, antagonist transcription","+1 nM R1881, 3 μM",3.32
same,"HPGD expression, antagonist transcription","+1 nM R1881, 3 μM",13.19
same,"NCAPD3 expression, antagonist transcription","+1 nM R1881, 3 μM",3.14
same,"NKX3.1 expression, antagonist transcription","+1 nM R1881, 3 μM",6.72
same,"NOV expression, antagonist transcription","+1 nM R1881, 3 μM",0.61
same,"ORM1 expression, antagonist transcription","+1 nM R1881, 3 μM",257.85
same,"PLD1 expression, antagonist transcription","+1 nM R1881, 3 μM",0.13
same,"PSA expression, antagonist transcription","+1 nM R1881, 3 μM",11.75
same,"SLUG expression, antagonist transcription","+1 nM R1881, 3 μM",10.56
same,"STEAP4 expression, antagonist transcription","+1 nM R1881, 3 μM",74.44
same,"TMPRSS2 expression, antagonist transcription","+1 nM R1881, 3 μM",10.51
same,"AMIGO2 expression, antagonist transcription","+1 nM R1881, 10 μM",0.78
same,"BDNF expression, antagonist transcription","+1 nM R1881, 10 μM",0.99
same,"CAM2KN1 expression, antagonist transcription","+1 nM R1881, 10 μM",0.50
same,"FASN expression, antagonist transcription","+1 nM R1881, 10 μM",0.46
same,"FKBP5 expression, antagonist transcription","+1 nM R1881, 10 μM",1.41
same,"NKX3.1 expression, antagonist transcription","+1 nM R1881, 10 μM",4.70
same,"NOV expression, antagonist transcription","+1 nM R1881, 10 μM",1.00
same,"ORM1 expression, antagonist transcription","+1 nM R1881, 10 μM",43.91
same,"PLD1 expression, antagonist transcription","+1 nM R1881, 10 μM",0.42
same,"PSA expression, antagonist transcription","+1 nM R1881, 10 μM",6.59
same,"SLUG expression, antagonist transcription","+1 nM R1881, 10 μM",5.26
same,"STEAP4 expression, antagonist transcription","+1 nM R1881, 10 μM",13.61
same,"TMPRSS2 expression, antagonist transcription","+1 nM R1881, 10 μM",3.58
same,"AMIGO2 expression, antagonist transcription","+1 nM R1881, 30 μM",0.92
same,"BDNF expression, antagonist transcription","+1 nM R1881, 30 μM",1.12
same,"CAM2KN1 expression, antagonist transcription","+1 nM R1881, 30 μM",0.56
same,"FASN expression, antagonist transcription","+1 nM R1881, 30 μM",0.59
same,"FKBP5 expression, antagonist transcription","+1 nM R1881, 30 μM",1.50
same,"HPGD expression, antagonist transcription","+1 nM R1881, 30 μM",4.25
same,"NKX3.1 expression, antagonist transcription","+1 nM R1881, 30 μM",5.03
same,"NOV expression, antagonist transcription","+1 nM R1881, 30 μM",0.92
same,"ORM1 expression, antagonist transcription","+1 nM R1881, 30 μM",22.70
same,"PLD1 expression, antagonist transcription","+1 nM R1881, 30 μM",0.54
same,"PSA expression, antagonist transcription","+1 nM R1881, 30 μM",5.65
same,"SLUG expression, antagonist transcription","+1 nM R1881, 30 μM",5.22
same,"STEAP4 expression, antagonist transcription","+1 nM R1881, 30 μM",7.79
same,"TMPRSS2 expression, antagonist transcription","+1 nM R1881, 30 μM",4.62
same,FASN gene expression,[1],1.19
same,FKBP5 gene expression,[1],1.71
same,HPGD gene expression,[1],2.01
same,NKX3.1 gene expression,[1],2.51
same,ORM1 gene expression,[1],3.58
same,PLD1 gene expression,[1],0.65
same,PSA gene expression,[1],2.69
same,SLUG gene expression,[1],2.06
same,TMPRSS2 gene expression,[1],2.36
same,"AMIGO2 expression, agonist transcription","−R1881, 0.3 μM",0.68
same,"CAM2KN1 expression, agonist transcription","−R1881, 0.3 μM",0.80

# Source: patent US9617602B2, “Methods and compositions for determining resistance to androgen receptor therapy” (Aragon Pharmaceuticals, Inc., priority 2012, dated 2017)
